Measurements taken from PubChem BioAssay AID1625 (Sanford-Burnham Center for Chemical Genomics, 2009).
Calls of active or inactive are those of the source.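 Rule for the calls: active = z-score above 3 at 5 µM with at least 500 cells counted in the well; inconclusive = wells under 500 cells, flagged as cytotoxic or low count; inactive = the rest.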

test system: MIN6 insulin promoter-GFP reporter, high-content imaging; test: up-regulation of insulin promoter-GFP reporter – imaging, high-content screening, mouse beta cells (AID 1625)

| Compound | EC50 |
| --- | --- |
| Cc1cc2c(C(F)(F)F)cc(=O)oc2c2c1NCCC2 | > 16 µM (inactive) |
| CCN(CC)c1ccc2cc(C(=O)Nc3ccccn3)c(=O)oc2c1 | > 16 µM (inactive) |
| CN(C)c1ccc(/C=C2\SC(=O)N(CC(O)Cn3c4ccccc4c4ccccc43)C2=O)cc1 (configuration not stated) | > 16 µM (inactive) |
| Cc1ccc(Nc2nc(Cl)c(C=O)s2)cc1Cl | > 16 µM (inactive) |
| CCCCN1C(=O)/C(=C/C=C2\SCCN2C)SC1=S | 9.18 µM |
| O=[N+]([O-])c1ccc(N/N=C/c2c[nH]c3ccccc23)cc1 | 10.8 µM (inactive) |
| Nc1c(C(=O)C2CC2)sc2nc(-c3ccccc3)cc(C(F)(F)F)c12 | 8.81 µM |
| CC[n+]1c(/C=C/C=C/N(C(C)=O)c2ccccc2)sc2cc(OC)ccc21 | 0.887 µM |
| CCOC(=O)CN1C(=O)S/C(=C/c2ccc(N3CCCCC3)o2)C1=O | 8.3 µM |
| CN1CCN(C2=CC3=CC(=C(C#N)C#N)CCC3CC2)CC1 (configuration not stated) | 3.41 µM |
| CCOCCCNc1nc2c(C)cccn2c(=O)c1/C=C1\SC(=S)N(CC(C)C)C1=O | > 16 µM (inactive) |
| N#C/C(=C/c1ccc(N2CCOCC2)o1)C(=O)Nc1ccccc1 | 9.79 µM |
| CCN1CCN(C2=CC3=CC(=C(C#N)C#N)CCC3CC2)CC1 (configuration not stated) | 2.79 µM |
| Cc1ccc(N2C(=O)C3C(C(=O)c4ccccc4)=NN(c4ccccc4)C3C2=O)cc1 (configuration not stated) | 12.6 µM (inactive) |
| O=C1S/C(=C\c2ccc(N3CCOCC3)o2)C(=O)N1Cc1ccc(F)cc1 | > 16 µM (inactive) |
| CC(=O)c1cc(NC(=O)c2ccc(Cl)cc2)c(=O)oc1/C=C/N(C)C | > 16 µM (inactive) |
| CCCN1CCc2c(sc(NC(=S)NC(=O)c3ccccc3)c2C#N)C1 | 7.92 µM |
| CCOC(=O)C1=C(C)NC(=O)NC1c1ccc(N2CCC(c3ccccc3)=N2)cc1 (configuration not stated) | > 16 µM (inactive) |
| COc1cc2c3nnc(-c4ccc(F)cc4)c-3cn(Cc3ccc(F)cc3)c2cc1OC | 5.41 µM |
| CCCCN(C)C1=CC2=CC(=C(C#N)C#N)CCC2CC1 (configuration not stated) | < 0.25 µM |
| CN1/C(=C\C=C2C(=O)NC(=S)NC2=O)C(C)(C)c2ccccc21 | 3.89 µM |
| Cc1c(-c2ccc(O)cc2)nc2nc(-c3ccccc3)c(-c3ccccc3)nn12 | 5.31 µM |
| N#CC(C#N)=C1C=C2C=C(N3CCOCC3)CCC2CC1 (configuration not stated) | 2.56 µM |
| Cn1c(=O)c(NC2CCCCC2)c2c3c(cccc31)C(=O)c1ccccc1-2 | 2.67 µM |

| Compound | EC50 |
| --- | --- |
| CCN(CC)c1ccc(/C=C/C(=O)c2ccc(Br)cc2)cc1 | 7.06 µM |
| O=C1/C(=C/c2ccc(N3CCOCC3)o2)SC(=Nc2ccccc2)N1CCc1c[nH]c2ccccc12 | 0.702 µM |
| Cc1noc(/C=C/c2ccc(-c3ccccc3Cl)o2)c1[N+](=O)[O-] | 5.6 µM |
| CCN1C=CC2=C(C#N)C(N)C(C#N)(C#N)C(c3ccccc3C(F)(F)F)C2C1 (configuration not stated) | 4.63 µM |
| COc1ccc(-c2ccc3c(N)c(C(=O)c4cccc(OC)c4)sc3n2)cc1 | > 16 µM (inactive) |
| N#C/C(=C/c1ccc(N2CCCCC2)o1)C(=O)NCCc1c[nH]c2ccccc12 | 5.17 µM |
| CN1CC=C2C(C#N)=C(N)C(C#N)(C#N)C(Cc3ccccc3)C2C1 (configuration not stated) | 11.7 µM (inactive) |
| CNC(=O)c1c(NC(=O)c2ccc(S(=O)(=O)N3CCCc4ccccc43)cc2)sc2c1CCN(C)C2 | > 16 µM (inactive) |
| Cc1cc2nc3c(=O)n(C4CCCCC4)c(=O)[nH]c3nc2cc1N | 8.73 µM |
| Nc1ccc2c(c1)Cc1cc([N+](=O)[O-])ccc1-2 | 9.53 µM |
| CCCNc1c(F)c(F)c2c(C)c3ccccc3nc2c1F | 8.02 µM |
| COc1ccc(/C(O)=C/c2nc3ccc(C(=O)NCCc4cccc(C)c4)cc3[nH]c2=O)cc1OC | > 16 µM (inactive) |
| Nc1c(C(=O)C2CC2)sc2nc(-c3cccs3)cc(C(F)(F)F)c12 | 4.16 µM |
| N#Cc1c(NC(=S)NC(=O)c2ccccc2)sc2c1CCN(CCc1ccccc1)C2 | 7.1 µM |
| COc1cc2c(cc1OC)C1=CC(=O)C(=O)N1C(C)(C)C2 | 11.5 µM (inactive) |
| N#Cc1ccc(-c2ccccc2)nc1SCC(=O)c1cccc(Cl)c1 | > 16 µM (inactive) |
| CC(C)N1CCc2c(sc(NC(=O)c3ccc(S(=O)(=O)N4CCc5ccccc54)cc3)c2C(N)=O)C1 | > 16 µM (inactive) |
| Nc1c(C(=O)N/N=C/c2cccnc2)oc2nc(-c3ccco3)cc(-c3ccco3)c12 | > 16 µM (inactive) |
| COc1ccc(C2C(C(C)=O)=C(C)N=c3s/c(=C\c4cc(C)n(C)c4C)c(=O)n32)c(OC)c1 (configuration not stated) | 8.89 µM |
| O=[N+]([O-])c1ccc(N(c2ccccc2)c2ccccc2)cc1 | > 16 µM (inactive) |
| CCN(CC)C(=O)c1sc2nc(-c3cccs3)cc(-c3cccs3)c2c1N | > 16 µM (inactive) |
| N#C/C(=C\c1ccc(N2CCCCC2)o1)C(=O)Nc1cccc(Br)c1 | 0.605 µM |
| CCN(CC)c1ccc(C=C(c2nnnn2-c2ccccc2)c2nnnn2-c2ccccc2)cc1 | > 16 µM (inactive) |
| COc1cccc2sc(NNC(=O)C3=COCCO3)nc12 | > 16 µM (inactive) |

| Compound | EC50 |
| --- | --- |
| Cc1cc(N/N=C/c2ccc([N+](=O)[O-])o2)nc2ccccc12 | > 16 µM (inactive) |
| O=c1oc2cc(O)ccc2cc1-c1nc2c(s1)CCc1ccccc1-2 | 10.2 µM (inactive) |
| CCN(CC)c1ccc2cc(C(N)=O)/c(=N\NC(=O)c3ccncc3)oc2c1 | 9.67 µM |
| COCCN1C(=O)/C(=C/c2ccc(N3CCCC3)cc2)SC1=S | 12 µM (inactive) |
| C=CCN1C(=O)/C(=C/C=C2/N(CC)c3ccc(S(=O)(=O)N(C)C)cc3N2CC)SC1=S | > 16 µM (inactive) |
| Cc1ccc(S(=O)(=O)CCSc2nc(C)cc(C(F)(F)F)c2C#N)cc1 | > 16 µM (inactive) |
| Cc1cccc(NC(=O)/C=C/c2ccc([N+](=O)[O-])s2)c1 | > 16 µM (inactive) |
| CCN(CC)c1ccc(/C=C2\SC(=O)N(C(C)C)C2=O)o1 | 4.61 µM |
| CC(C)/C=C1\CC/C(=C\c2ccc(N(C)C)cc2)C1=O | > 16 µM (inactive) |
| N#CC(C#N)=C1C=C2C=C(N3CCCCC3)CCC2CC1 (configuration not stated) | 0.643 µM |
| CN1C=CC2=C(C#N)C(N)C(C#N)(C#N)C(c3ccccc3)C2C1 (configuration not stated) | 7.42 µM |
| CC(=O)Nc1cccc(C(=O)/C=C/c2ccc(N(C)C)cc2)c1 | 12.9 µM (inactive) |
| COc1cc(N2CCCC2)c(OC)cc1/C=C1/NC(=S)NC1=O | 4.73 µM |
| Cc1cc(/C=C2\NC(=S)N(C)C2=O)ccc1N1CCCC1 | 8.97 µM |
| O=[N+]([O-])c1ccc(-c2ccc(/C=N/Nc3nc(N4CCCCC4)nc(N4CCCCC4)n3)o2)cc1 | > 16 µM (inactive) |
| COCCNC(=S)N/N=C/c1ccc(-c2ccc([N+](=O)[O-])cc2)o1 | > 16 µM (inactive) |
| O=C(N=C1SCC(=O)N1c1ccccc1Cl)c1ccccc1 | > 16 µM (inactive) |
| CCCN1C(=O)/C(=C/C=C2\N(CC)c3ccccc3C2(C)C)SC1=S | > 16 µM (inactive) |
| CC(C)(C)C(=O)/C=c1\s/c(=C\c2ccc(-c3ccc([N+](=O)[O-])cc3)o2)c(=O)n1CC(=O)NC(N)=O | 0.829 µM |
| CC(=O)Nc1ccc(N=Cc2c(O)c(C(=O)Nc3ccccc3)cc3ccccc23)cc1 | > 16 µM (inactive) |
| O=C(/C=C/c1c[nH]c2ccccc12)c1c(O)n(CCc2ccccc2)c(=O)[nH]c1=O | > 16 µM (inactive) |
| CCOC(=O)CC1C(=O)NCCN1c1nc2c(C)cccn2c(=O)c1/C=C1\SC(=S)N(C(C)CC)C1=O (configuration not stated) | 7.29 µM |
| CCCSc1nc2sc3c(c2c(=O)[nH]1)CCN(Cc1ccccc1)C3 | > 16 µM (inactive) |
| CCN(CC)c1ccc(/C=C(/C#N)C(=O)NC(C)C)o1 | > 16 µM (inactive) |
